Measured values taken from US20180344726A1, “ABUSE RESISTANT TRANSDERMAL DELIVERY DEVICES AND COMPOSITIONS COMPRISING AN OPIOID AGONIST AND A NON-TRANSDERMALLY DELIVERED N-OXIDE DERIVATIVE OF AN OPIOID ANTAGONIST FOR THE TREATMENT OF PAIN” (priority 2015, published 2018).

Assays:
[1] = pKa analysis by pH-metric triple titration; type: physicochemical; settings: […] C., […] KCl
Experimental: pKa analysis was performed using a pH-metric method. […] No precipitation or degradation was observed and two pKas were determined from the potentiometric data. Log P was determined using the potentiometric (pH-metric method). The sample was titrated in various ratios of octanol/water in two titrations covering the pH range 2.0-12.0 at concentrations of 1.9-1.1 mM. The shift of the aqueous pKas in the presence of octanol was used to determine the log P of the neutral species.

[2] = Concentration of saturated antagonist solutions in phosphate buffer pH 5.0; type: physicochemical; settings: phosphate buffer pH 5.0, stirred overnight, filtered
Experimental: The determination of in vitro skin permeation was performed with saturated solutions of the respective antagonist species. Therefore an excess of the antagonist was weighed in phosphate buffer of pH 5.0 and stirred overnight. pH was monitored and, if necessary, adjusted. The cells were incubated at 32° C. Solutions were filtrated through a syringe filter (1 μm PTFE) prior to application into the diffusion cells. Concentrations of the solutions were determined.
The determination of naloxone and naloxone N-oxide in the acceptor medium of the in vitro skin permeations samples (receptor phase) was done by HPLC with UV-detection.

In the case of `C=CC[N+]1([O-])CC[C@]23c4c5ccc(O)c4O[C@H]2C(=O)CC[C@@]3(O)[C@H]1C5` (stereo partly drawn) [Naloxone N-oxide], the pKa ([1]; Type Acid) is reported as 8.55 ± 0.01, the pKa ([1]; Type Base) is reported as 2.96 ± 0.01 and the “Concentration saturated solution c” value [2] is reported as 3960 µg/mL.
